Reference: article PMC6979384, “Characterization of the plant homeodomain (PHD) reader family for their histone tail interactions” (Epigenetics & Chromatin, 2020)
Where no end group is shown, it is not given here.

Assays:
Test in all cases: Histone peptide microarray
Format in all cases: binding, human
AIRE (PP) = conditions: AIRE (PP); sheet "Array Heatmap"; each array performed twice, total n = 4
Description: (§1) To more comprehensively define the histone interactions of the 31 PHD readers identified from the domain microarray analyses, we probed each on an alternate microarray platform containing a library of 293 synthetic histone peptides with single or combinatorial PTMs (Additional file 2: Figure S4 and Additional file 3: Table S2).
(§2) The 31 GST-tagged PHD readers identified in the PHD finger domain array were expressed and purified as previously. Histone peptide arrays and peptide pulldown assays were conducted as recently described (specifically, the optimized protocol from Petell et al. for the former).
(§3) Supplementary file 13072_2020_328_MOESM3_ESM.xlsx: Additional file 3: Table S2. […] Excel Tab Peptide List is a compiled list of the entire 293 histone peptide library with amino acid sequence ranges. […] Each number corresponds to the peptide number designated in Peptide List. Excel Tab Average Signals is a compiled set of binding data: chromatin reader at 0.5 μM vs. entire 293 peptide library. Data is presented as the average and standard deviation of 4 replicates. The average signals are colored to indicate signal intensity with green being strong and white being weak/low. […] Key: red= stronger relative binding; blue = weaker relative binding. Excel Tab Array info summary is a table summarizing the domains, sequence coverage, array signal range, and noise for each of the GST-tagged readers assayed on the peptide microarrays.

BAZ2B = conditions: BAZ2B; sheet "Array Heatmap"; each array performed twice, total n = 4
Description: as §1, §2, §3

BPTF (PB) = conditions: BPTF (PB); sheet "Array Heatmap"; each array performed twice, total n = 4
Description: as §1, §2, §3

CHD4 (PPCC) = conditions: CHD4 (PPCC); sheet "Array Heatmap"; each array performed twice, total n = 4
Description: as §1, §2, §3

CHD5 (PCC) = conditions: CHD5 (PCC); sheet "Array Heatmap"; each array performed twice, total n = 4
Description: as §1, §2, §3

CHD5 (PPCC) = conditions: CHD5 (PPCC); sheet "Array Heatmap"; each array performed twice, total n = 4
Description: as §1, §2, §3

DIDO1 = conditions: DIDO1; sheet "Array Heatmap"; each array performed twice, total n = 4
Description: as §1, §2, §3

DPF2 (PPC2W2) = conditions: DPF2 (PPC2W2); sheet "Array Heatmap"; each array performed twice, total n = 4
Description: as §1, §2, §3

ING1 = conditions: ING1; sheet "Array Heatmap"; each array performed twice, total n = 4
Description: as §1, §2, §3

ING2 = conditions: ING2; sheet "Array Heatmap"; each array performed twice, total n = 4
Description: as §1, §2, §3

ING3 = conditions: ING3; sheet "Array Heatmap"; each array performed twice, total n = 4
Description: as §1, §2, §3

ING4 = conditions: ING4; sheet "Array Heatmap"; each array performed twice, total n = 4
Description: as §1, §2, §3

ING5 = conditions: ING5; sheet "Array Heatmap"; each array performed twice, total n = 4
Description: as §1, §2, §3

KDM4C (TTP) = conditions: KDM4C (TTP); sheet "Array Heatmap"; each array performed twice, total n = 4
Description: as §1, §2, §3

KDM5A (1) = conditions: KDM5A (1); sheet "Array Heatmap"; each array performed twice, total n = 4
Description: as §1, §2, §3

KDM5A (3) = conditions: KDM5A (3); sheet "Array Heatmap"; each array performed twice, total n = 4
Description: as §1, §2, §3

KDM5B (1) = conditions: KDM5B (1); sheet "Array Heatmap"; each array performed twice, total n = 4
Description: as §1, §2, §3

KDM5B (3) = conditions: KDM5B (3); sheet "Array Heatmap"; each array performed twice, total n = 4
Description: as §1, §2, §3

KDM7A = conditions: KDM7A; sheet "Array Heatmap"; each array performed twice, total n = 4
Description: as §1, §2, §3

MLL5 = conditions: MLL5; sheet "Array Heatmap"; each array performed twice, total n = 4
Description: as §1, §2, §3

MORC3 (CW) = conditions: MORC3 (CW); sheet "Array Heatmap"; each array performed twice, total n = 4
Description: as §1, §2, §3

PHF13 = conditions: PHF13; sheet "Array Heatmap"; each array performed twice, total n = 4
Description: as §1, §2, §3

PHF21A = conditions: PHF21A; sheet "Array Heatmap"; each array performed twice, total n = 4
Description: as §1, §2, §3

PHF23 = conditions: PHF23; sheet "Array Heatmap"; each array performed twice, total n = 4
Description: as §1, §2, §3

PHF2 = conditions: PHF2; sheet "Array Heatmap"; each array performed twice, total n = 4
Description: as §1, §2, §3

PHF8 = conditions: PHF8; sheet "Array Heatmap"; each array performed twice, total n = 4
Description: as §1, §2, §3

PHRF1 (RP) = conditions: PHRF1 (RP); sheet "Array Heatmap"; each array performed twice, total n = 4
Description: as §1, §2, §3

RAG2 = conditions: RAG2; sheet "Array Heatmap"; each array performed twice, total n = 4
Description: as §1, §2, §3

SP140L = conditions: SP140L; sheet "Array Heatmap"; each array performed twice, total n = 4
Description: as §1, §2, §3

TAF3 = conditions: TAF3; sheet "Array Heatmap"; each array performed twice, total n = 4
Description: as §1, §2, §3

TRIM66 (PB) = conditions: TRIM66 (PB); sheet "Array Heatmap"; each array performed twice, total n = 4
Description: as §1, §2, §3

Substance	Array Heatmap value (peptide array signal) (AIRE (PP))	Array Heatmap value (peptide array signal) (BAZ2B)	Array Heatmap value (peptide array signal) (BPTF (PB))	Array Heatmap value (peptide array signal) (CHD4 (PPCC))	Array Heatmap value (peptide array signal) (CHD5 (PCC))	Array Heatmap value (peptide array signal) (CHD5 (PPCC))	Array Heatmap value (peptide array signal) (DIDO1)	Array Heatmap value (peptide array signal) (DPF2 (PPC2W2))	Array Heatmap value (peptide array signal) (ING1)	Array Heatmap value (peptide array signal) (ING2)	Array Heatmap value (peptide array signal) (ING3)	Array Heatmap value (peptide array signal) (ING4)	Array Heatmap value (peptide array signal) (ING5)	Array Heatmap value (peptide array signal) (KDM4C (TTP))	Array Heatmap value (peptide array signal) (KDM5A (1))	Array Heatmap value (peptide array signal) (KDM5A (3))	Array Heatmap value (peptide array signal) (KDM5B (1))	Array Heatmap value (peptide array signal) (KDM5B (3))	Array Heatmap value (peptide array signal) (KDM7A)	Array Heatmap value (peptide array signal) (MLL5)	further results
H2A.X (1-17): H2AX 1-17 (SGRGKTGGKARAKAKSR; UniProt P16104 2-18, looked up, fragment)	0.5574	0.5024	0.3452	0.5416	0.8255	0.5657	0.6032	0.6636	0.4806	0.5852	0.4419	0.4775	0.3684	0.5423	0.4987	0.4093	0.6651	0.4974	0.5198	0.5474	Array Heatmap value (peptide array signal) (MORC3 (CW)): 0.3549; Array Heatmap value (peptide array signal) (PHF13): 0.6046; Array Heatmap value (peptide array signal) (PHF21A): 0.4705; Array Heatmap value (peptide array signal) (PHF23): 0.4786; Array Heatmap value (peptide array signal) (PHF2): 0.3941; Array Heatmap value (peptide array signal) (PHF8): 0.3196; Array Heatmap value (peptide array signal) (PHRF1 (RP)): 0.3918; Array Heatmap value (peptide array signal) (RAG2): 0.2388; Array Heatmap value (peptide array signal) (SP140L): 0.3804; Array Heatmap value (peptide array signal) (TAF3): 0.2689; Array Heatmap value (peptide array signal) (TRIM66 (PB)): 0.5377
H2A.X K5ac: H2AX 1-17 (SGRGK(Ac)TGGKARAKAKSR; UniProt P16104 2-18, looked up, fragment)	0.4642	0.4631	0.3356	0.5228	0.7832	0.549	0.6192	0.6362	0.4851	0.5785	0.4453	0.4505	0.3639	0.5139	0.4768	0.4343	0.7034	0.4746	0.4169	0.5039	Array Heatmap value (peptide array signal) (MORC3 (CW)): 0.3506; Array Heatmap value (peptide array signal) (PHF13): 0.5821; Array Heatmap value (peptide array signal) (PHF21A): 0.4552; Array Heatmap value (peptide array signal) (PHF23): 0.5099; Array Heatmap value (peptide array signal) (PHF2): 0.3936; Array Heatmap value (peptide array signal) (PHF8): 0.3518; Array Heatmap value (peptide array signal) (PHRF1 (RP)): 0.4233; Array Heatmap value (peptide array signal) (RAG2): 0.2437; Array Heatmap value (peptide array signal) (SP140L): 0.3645; Array Heatmap value (peptide array signal) (TAF3): 0.2702; Array Heatmap value (peptide array signal) (TRIM66 (PB)): 0.5335
